IC50 and Kd data for 51 molecules are collected here from patent publication US20230115176A1 (Ra Pharmaceuticals, Inc., priority 2019, published 2023).

Structures are written as SMILES.

A word on the IC50: it is the midpoint of a concentration-inhibition curve. One may read the Kd as the free concentration of one partner at which half of the binding sites on the other are occupied at equilibrium, for simple one-to-one binding. A high value points to a looser complex.

For one test, the target named is purified human C5 (Homo sapiens, UniProt P01031). As to the kind of experiment: Red blood cell hemolysis assay, optical, absorbance 412 nm (Example 3, Table 6). As to conditions: antibody-sensitized sheep erythrocytes, 1.5% human C5 depleted sera, 0.5 nM human C5; average where replicates. The test is classed as cell-based.
purified human C5, sequence (P01031 19-1676): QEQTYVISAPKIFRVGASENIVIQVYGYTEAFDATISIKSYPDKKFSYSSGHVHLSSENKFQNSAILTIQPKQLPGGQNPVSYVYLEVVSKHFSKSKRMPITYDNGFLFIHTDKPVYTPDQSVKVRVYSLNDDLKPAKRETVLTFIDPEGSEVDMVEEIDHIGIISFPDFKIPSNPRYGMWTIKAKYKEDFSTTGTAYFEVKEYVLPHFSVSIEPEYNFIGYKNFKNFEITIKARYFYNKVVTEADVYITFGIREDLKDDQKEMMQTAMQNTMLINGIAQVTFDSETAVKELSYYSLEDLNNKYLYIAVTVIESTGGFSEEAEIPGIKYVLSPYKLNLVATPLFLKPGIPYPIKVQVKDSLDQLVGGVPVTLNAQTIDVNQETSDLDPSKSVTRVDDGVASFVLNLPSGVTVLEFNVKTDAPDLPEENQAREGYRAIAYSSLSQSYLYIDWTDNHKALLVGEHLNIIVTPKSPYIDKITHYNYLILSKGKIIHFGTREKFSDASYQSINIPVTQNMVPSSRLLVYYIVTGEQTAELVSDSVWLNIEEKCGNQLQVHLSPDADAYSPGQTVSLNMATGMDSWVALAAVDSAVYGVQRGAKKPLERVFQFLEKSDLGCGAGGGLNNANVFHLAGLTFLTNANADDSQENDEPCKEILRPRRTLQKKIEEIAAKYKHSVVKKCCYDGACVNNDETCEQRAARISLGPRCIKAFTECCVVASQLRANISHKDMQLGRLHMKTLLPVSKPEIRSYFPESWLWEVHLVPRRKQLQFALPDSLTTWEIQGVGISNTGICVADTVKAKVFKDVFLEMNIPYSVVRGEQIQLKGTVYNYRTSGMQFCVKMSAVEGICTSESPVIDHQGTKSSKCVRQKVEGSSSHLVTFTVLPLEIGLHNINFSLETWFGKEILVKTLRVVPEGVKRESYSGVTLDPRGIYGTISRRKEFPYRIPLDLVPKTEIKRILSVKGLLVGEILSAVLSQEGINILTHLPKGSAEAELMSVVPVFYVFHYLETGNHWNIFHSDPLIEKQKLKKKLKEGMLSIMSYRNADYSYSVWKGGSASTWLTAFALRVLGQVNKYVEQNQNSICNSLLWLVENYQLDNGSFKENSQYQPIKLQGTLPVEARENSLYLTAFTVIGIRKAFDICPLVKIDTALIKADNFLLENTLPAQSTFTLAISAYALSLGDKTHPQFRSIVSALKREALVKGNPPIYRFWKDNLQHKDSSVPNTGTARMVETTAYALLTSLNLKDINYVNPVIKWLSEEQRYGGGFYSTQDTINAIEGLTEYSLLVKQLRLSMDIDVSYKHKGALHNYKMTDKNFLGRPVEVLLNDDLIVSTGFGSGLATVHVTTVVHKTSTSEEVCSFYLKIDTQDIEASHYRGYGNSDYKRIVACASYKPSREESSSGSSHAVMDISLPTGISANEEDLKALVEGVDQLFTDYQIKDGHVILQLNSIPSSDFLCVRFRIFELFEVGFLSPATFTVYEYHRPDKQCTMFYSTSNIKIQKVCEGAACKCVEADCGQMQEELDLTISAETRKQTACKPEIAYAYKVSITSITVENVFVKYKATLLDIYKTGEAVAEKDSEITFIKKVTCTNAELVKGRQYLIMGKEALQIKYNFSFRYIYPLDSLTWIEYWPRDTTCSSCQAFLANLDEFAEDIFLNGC
The target of a further test is T1, Human C5 (Homo sapiens, UniProt P01031).
T1 construct: purchased Complement Technology
T1 sequence (P01031 19-1676): as above
As to the kind of experiment: Surface plasmon resonance (SPR), compounds on immobilized human C5 (Example 2, Table 5). Format: binding. The note with it: lowest value where a range of compound concentrations were analyzed.

Procedure for purified human C5: Experiments were carried out using a red blood cell (RBC) hemolysis assay to assess compound inhibition of RBC lysis. […] The assay was carried out using 1.5% human C5 depleted sera and 0.5 nM purified human C5.
GVB++ buffer (Complement Technology, Tyler, Tex.) was heated at 37° C. for a minimum of 20 minutes. The human C5 depleted sera and purified human C5 were rapidly thawed at 37° C. and then stored on ice or wet ice, respectively. The compound stock (10 mM, DMSO) was serially diluted in 100% DMSO to obtain ten 6-fold dilutions before addition of GVB++. Sera dilution was prepared by adding 5 mL of GVB++ to a 15 mL conical tube, removing 600 μL of the GVB++ and adding 600 μL of the 100% sera. The tube was mixed by inverting three times. A volume of 25 μL of the diluted sera was added to each well so that the final concentration of sera in the well was 1.5%. C5 dilution was prepared by adding 5 mL of GVB++ to a 15 mL conical tube, removing 4 μL of the GVB++ and adding 4 μL of the C5 stock. The tube was mixed by inverting three times. A volume of 25 μL was added to each well so that the final amount of C5 was 0.5 nM in each well. The antibody-sensitized sheep erythrocytes (EAs) were centrifuged at 1,000× gravity at 22° C. for 3 minutes. The supernatant was pipetted off without disrupting the pellet. The pellet was then resuspended in GVB++ with the same volume removed. Resuspended EAs were mixed by gently inverting the tube.
Five controls were run on each plate: (1) EAs only=100 μL EAs+50 μL GVB++ with 4% DMSO+50 μL GVB++; (2) EA+Sera=100 μL EAs+50 μL GVB++ with 4% DMSO+25 μL Sera dilution+25 μL GVB++; (3) EA+C5=100 μL EAs+50 μL GVB++ with 4% DMSO+25 μL C5 dilution+25 μL GVB++; (4) EA+Sera+C5=100 μL EAs+50 μL GVB++ with 4% DMSO+25 μL Sera dilution+25 μL C5; (5) GVB++ Only=200 μL GVB++. Other wells included: GVB++ with 4% DMSO=20 μL DMSO+480 μL GVB++. All samples were analyzed in duplicate. The compound dose response curve was generated using samples prepared with 100 μL EA+50 μL compound dilution+25 μL C5 dilution+25 μL sera dilution.
Test plates were prepared by adding 100 μL of EAs, 50 μL of compound dilution, 25 μL of sera dilution, and 25 μL of C5 dilution to individual wells of a 96-well tissue culture-treated clear microtitre plate (USA Scientific, Ocala, Fla.) and resuspending by pipetting up and down three times. The samples were incubated at 37° C. for one hour. At the completion of the incubation, the plates were centrifuged at 1,000× gravity for 3 minutes. 100 μl of supernatant were transferred to a new plate and the absorbance was read at 412 nm. Data was fit with a log-logit formula producing a dose-response curve and IC50.
“IC50” refers to the half maximal inhibitory concentration, where the value is the concentration of the inhibitor needed to reduce red blood cell hemolysis by half. Where replicate analysis was conducted, average IC50 values are provided along with standard deviation (SD) values.

In the case of `COc1ccc(NC(=O)NCc2ccncc2)cc1C#CCCC(C)C` [SM0046], at purified human C5, the IC50 came to 2240 nM. The molecule further yielded a Kd on Human C5 of 8600 nM.
The matching figures for `COc1ccc(NC(=O)N[C@@H](C)c2ccccc2)cc1OCCCC(C)C` [SM0009]: 198 nM and 647 nM.
As to `COc1ccc(NC(=O)NC(CO)c2ccccc2OC)cc1OCCCC(C)C` (stereo not drawn) [SM0003], the IC50 on purified human C5 was 26.8 nM. Besides, at Human C5, the Kd was found to be 14 nM.
The matching figures for `COc1ccc(NC(=O)NCc2cccc3ncccc23)cc1OCCCC(C)C` [SM0044]: 2180 nM and 74 nM.
Regarding `COc1ccc(NC(=O)Nc2ccccc2O)cc1OCCCC(C)C` [SM0069], the IC50 on purified human C5 amounted to 7720 nM. For the same molecule, the Kd on Human C5 was 140 nM.
In the case of `COc1ccc(NC(=O)N[C@@H](COC(C)=O)c2ccccc2)cc1OCCCC(C)C` [SM0062], the IC50 on purified human C5 came out at 5650 nM. In addition, on Human C5, the Kd is 2000 nM.
Regarding `COc1ccc(NC(=O)NCc2ccc3ccccc3n2)cc1OCCCC(C)C` [SM0086], the IC50 at purified human C5 is 16600 nM.
As to `COc1ccc(NC(=O)NCc2cccc(C#N)c2)cc1OCCCC(C)C` [SM0076], the IC50 at purified human C5 came to 11700 nM. The Kd at Human C5 is 9400 nM.
For `COc1ccc(NC(=O)NCc2cccc(S(C)(=O)=O)c2)cc1OCCCC(C)C` [SM0079], at purified human C5, the IC50 was 12700 nM.
For the molecule `COc1ccc(NC(=O)NC(CO)c2ccccn2)cc1OCCCC(C)C` (stereo not drawn) [SM0040], the IC50 at purified human C5 was determined as 1620 nM. The molecule also had an equilibrium dissociation constant (Kd) at Human C5 of 110 nM.
The matching figures for `COc1ccc(NC(=O)N[C@@H](CO)c2ccccc2)cc1C#CCCC(C)C` [SM0014]: 335 nM and 63 nM.
As for `COc1ccc(NC(=O)NCc2ccccc2)cc1OCCCC(C)C` [SM0026], the half-maximal inhibitory concentration (IC50) on purified human C5 is 685 nM. This molecule also displayed a Kd on Human C5 of 97 nM.
Consider `COc1ccc(NC(=O)N(C)CC(O)c2ccc(O)cc2)cc1OCCCC(C)C` (stereo not drawn) [SM0071, 1-[2-hydroxy-2-(4-hydroxyphenyl)ethyl]-3-(3-isohexyloxy-4-methoxy-phenyl)-1-methyl-urea], for which, on purified human C5, the IC50 was found to be 8660 nM. The same molecule yielded a dissociation constant (Kd) at Human C5 of 2100 nM.
On to `COc1ncc(NC(=O)N[C@@H](CO)c2ccccc2)cc1OCCCC(C)C` [SM0042], for which the 50% inhibitory concentration (IC50) on purified human C5 was 2130 nM. Moreover, the Kd on Human C5 was determined as 6400 nM.
Regarding `COc1ccc(NC(=O)N[C@@H](CO)c2ccccc2)cc1OCCCCC(F)(F)F` [SM0025], at purified human C5, the IC50 turned out to be 675 nM. Besides, the Kd on Human C5 was 620 nM.
Turning to `C=CCCOc1cc(NC(=O)N[C@@H](CO)c2ccccc2)ccc1OC` [SM0034], the IC50 at purified human C5 turned out to be 1100 nM. The same molecule showed a Kd at Human C5 of 1400 nM.
As for `COc1ccc(NC(=O)N[C@@H]2c3ccccc3C[C@@H]2O)cc1OCCCC(C)C` [SM0066], the IC50 at purified human C5 was determined as 6870 nM. For the same molecule, binding at Human C5 was put at a Kd of 290 nM.
As to `COc1ccc(NC(=O)N[C@@H](CO)c2ccc(F)cc2)cc1OCCCC(C)C` [SM0023], on purified human C5, the IC50 was found to be 608 nM. For the same molecule, on Human C5, the equilibrium dissociation constant (Kd) stood at 92 nM.
The matching figures for `COc1ccc(NC(=O)N[C@@H](CO)c2ccccc2)cc1C(F)(F)F` [SM0073]: 9260 nM and 3200 nM.
On to `COc1ccc(NC(=O)N[C@@H](CO)c2ccccc2)cc1OCCCCl` [SM0051], for which, on purified human C5, the 50% inhibitory concentration (IC50) was 3060 nM.
Regarding `COc1ccc(NC(=O)N[C@@H](CO)c2ccccc2)cc1OCCC(C)C` [SM0072], the IC50 at purified human C5 was 8680 nM. Besides, the Kd on Human C5 is 8200 nM.
Take `COc1cccc(C(CO)NC(=O)Nc2ccc(OC)c(OCCCC(C)C)c2)c1` (stereo not drawn) [SM0028]: the IC50 on purified human C5 was 896 nM.
`COc1ccc(NC(=O)NCc2ccccn2)cc1OCCCC(C)C` [SM0045]: on purified human C5, the IC50 came to 2230 nM. In addition, binding on Human C5 was put at a Kd of 2800 nM.
The matching figures for `COc1ccc(NC(=O)NCc2ccncc2)cc1OCCCC(C)C` [SM0031]: 983 nM and 2700 nM.
The matching figures for `COc1ccc(NC(=O)NCc2ccccc2O)cc1CCCCC(C)C` [SM0005]: 65.8 nM and 37 nM.
The matching figures for `COc1ccc(NC(=O)NC(CO)c2cccc(F)c2)cc1OCCCC(C)C` (stereo not drawn) [SM0018]: 420 nM and 114 nM.
As to `COc1ccc(NC(=O)N(CCO)c2ccccc2)cc1OCCCC(C)C` [SM0057], the IC50 on purified human C5 came to 4050 nM. The same molecule came in with a Kd at Human C5 of 5300 nM.
The matching figures for `COc1ccc(NC(=O)NC(CO)c2ccccc2C)cc1OCCCC(C)C` (stereo not drawn) [SM0036]: 1240 nM and 4300 nM.
`COc1ccc(NC(=O)NCc2ccc3[nH]ccc3c2)cc1OCCCC(C)C` [SM0022]: the IC50 at purified human C5 amounted to 581 nM. Binding on Human C5 was characterised by a dissociation constant (Kd) of 84 nM.
The matching figures for `COc1ccc(NC(=O)NCc2ccsc2)cc1OCCCC(C)C` [SM0039]: 1490 nM and 210 nM.
Take `COc1ccc(NC(=O)NCc2cnccn2)cc1OCCCC(C)C` [SM0080]: on purified human C5, the IC50 amounted to 13000 nM. The same molecule came in with a Kd at Human C5 of 144 nM.
The matching figures for `COc1ccc(NC(=O)N[C@@H](CO)c2ccccc2)cc1OCC(C)CC(C)C` (stereo partly drawn) [SM0038]: 1480 nM and 800 nM.
In the case of `COc1ccc(NC(=O)NC(CO)c2cnn(C)c2)cc1OCCCC(C)C` (stereo not drawn) [SM0055], the IC50 at purified human C5 came out at 3450 nM.
Turning to `COc1ccc(NC(=O)NC(CO)c2ccc(F)cc2)cc1OCCCC(C)C` (stereo not drawn) [SM0020], the IC50 at purified human C5 was determined as 478 nM.
With `COc1ccc(NC(=O)N[C@@H](CO)c2ccccc2)cc1OCCC1CCCC1` [SM0019], the 50% inhibitory concentration (IC50) at purified human C5 is 450 nM. This molecule showed a Kd on Human C5 of 39 nM.
The matching figures for `COc1cc(CNC(=O)Nc2ccc(OC)c(OCCCC(C)C)c2)ccc1O` [SM0030]: 936 nM and 190 nM.
The matching figures for `COc1ccc(NC(=O)NC(CO)c2ccc(Cl)cc2)cc1OCCCC(C)C` (stereo not drawn): 3390 nM and 320 nM.
The matching figures for `COc1ccc(NC(=O)NC(C)c2cccnc2)cc1OCCCC(C)C` (stereo not drawn) [SM0037]: 1320 nM and 628 nM.
On to `COc1ccc(NC(=O)NCc2ccc(S(N)(=O)=O)cc2)cc1OCCCC(C)C` [SM0048], for which the IC50 on purified human C5 stood at 2540 nM. This molecule displayed an equilibrium dissociation constant (Kd) at Human C5 of 7200 nM.
On to `COc1ccc(CNC(=O)Nc2ccc(OC)c(OCCCC(C)C)c2)cc1` [SM0041], for which the IC50 on purified human C5 came out at 1800 nM.
On the same count and under the same terms, next, `COc1ccc(NC(=O)N[C@@H](CO)c2ccccc2)cc1OCc1ccccc1` [SM0088]: 18400 nM.
Regarding `COc1ccc(NC(=O)N[C@@H](CO)c2ccccc2)cc1OCC(F)(F)F` [SM0085], at purified human C5, the IC50 was 16100 nM.
In turn, `COc1ccc(NC(=O)NC(c2ccccc2F)[C@@H](O)CO)cc1OCCCC(C)C` (stereo partly drawn) [SM0106] yielded a Kd at Human C5 of 2700 nM.
Still for that read-out and setting: with `CCCOc1cc(NC(=O)O[C@@H](C)c2ccccc2)ccc1OC` [SM0110] the figure was 3900 nM; with `COc1ccc(NC(=O)NCc2cncnc2)cc1OCCCC(C)C` [SM0090], 2100 nM.
On the same count and under the same terms, next, `COc1ccc(NC(=O)NCc2ccc(Br)cc2)cc1OCCCC(C)C` [SM0089]: 3100 nM; `COc1ccc(NC(=O)N[C@@H](C)c2ccc(Br)cc2)cc1OCCCC(C)C` [SM0108]: 3200 nM.
Regarding `COc1ccc(NC(=O)NC(c2ccccc2F)C(C)O)cc1OCCCC(C)C` (stereo not drawn) [SM0082], the IC50 on purified human C5 turned out to be 14500 nM.
For `COc1ccc(NC(=O)NCc2ccccc2CN(C)C)cc1OCCCC(C)C` [SM0100], at Human C5, the Kd came to 120 nM.
Consider `COc1ccc(NC(=O)N[C@@H](CO)c2ccccc2)cc1OCCN1CCN(C)CC1` [SM0115], for which binding on Human C5 was characterised by a dissociation constant (Kd) of 6700 nM.
For `COc1ccc(NC(=O)N[C@@H](CO)c2ccccc2)cc1Br` [SM0060], at purified human C5, the IC50 turned out to be 4470 nM.
